Common to all, as to experiment: relative viability (nuclei count vs DMSO), 5 days (fraction); higher = more cells survive
Compound in the assay “Ponatinib + Foretinib”: Cc1ccc(C(=O)Nc2ccc(CN3CCN(C)CC3)c(C(F)(F)F)c2)cc1C#Cc1cnc2cccnn12 [Ponatinib] + COc1cc2c(Oc3ccc(NC(=O)C4(C(=O)Nc5ccc(F)cc5)CC4)cc3F)ccnc2cc1OCCCN1CCOCC1 [Foretinib] (partner 0.25 µM)
In a few lines:
(§1)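 Lung cancer cell lines were pin-tool dosed in 1536-well plates on the day after seeding, with either a lone drug or a fixed anchor-drug dose plus five library-drug doses (not always all listed) in √10 steps. Nuclei were counted on 4× images after 5 days. Relative viability is the ratio of treated-well to vehicle-well nuclei counts, with each value a median of duplicate plates.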

Compound in the assay “Ponatinib + Pictilisib”: Cc1ccc(C(=O)Nc2ccc(CN3CCN(C)CC3)c(C(F)(F)F)c2)cc1C#Cc1cnc2cccnn12 [Ponatinib] + CS(=O)(=O)N1CCN(Cc2cc3nc(-c4cccc5[nH]ncc45)nc(N4CCOCC4)c3s2)CC1 [Pictilisib] (partner 1 µM)
The essentials:
as §1

Compound in the assay “Pazopanib + Tozasertib”: Cc1ccc(Nc2nccc(N(C)c3ccc4c(C)n(C)nc4c3)n2)cc1S(N)(=O)=O [Pazopanib] + Cc1cc(Nc2cc(N3CCN(C)CC3)nc(Sc3ccc(NC(=O)C4CC4)cc3)n2)n[nH]1 [Tozasertib] (partner 0.1 µM)
In a few lines:
as §1

Compound in the assay “Pazopanib + Olaparib”: Cc1ccc(Nc2nccc(N(C)c3ccc4c(C)n(C)nc4c3)n2)cc1S(N)(=O)=O [Pazopanib] + O=C(c1cc(Cc2n[nH]c(=O)c3ccccc23)ccc1F)N1CCN(C(=O)C2CC2)CC1 [Olaparib] (partner 8 µM)
In a few lines: as §1

For the cell line COR-L23, the relative viability turned out to be 0.931 with Ponatinib + Foretinib (first compound 0.002 µM); 0.896 in the assay with Ponatinib + Foretinib (first compound 0.006325 µM); 0.929 with Ponatinib + Foretinib (first compound 0.06325 µM); 0.796 in the assay with Ponatinib + Foretinib (first compound 0.2 µM); 0.768 in the assay with Ponatinib + Pictilisib (first compound 0.002 µM); 0.753 in the assay with Ponatinib + Pictilisib (first compound 0.006325 µM). For the same cell line, the relative viability was found to be 1.04 with Ponatinib + Pictilisib (first compound 0.06325 µM); 0.703 with Ponatinib + Pictilisib (first compound 0.2 µM); 0.236 with Pazopanib + Tozasertib (first compound 0.01 µM); 0.173 in the assay with Pazopanib + Tozasertib (first compound 0.03162 µM); 0.202 with Pazopanib + Tozasertib (first compound 0.1 µM); 0.214 in the assay with Pazopanib + Tozasertib (first compound 0.3162 µM). Besides, the relative viability with Pazopanib + Tozasertib (first compound 1 µM) was 0.152; with Pazopanib + Olaparib (first compound 0.01 µM), 0.35; with Pazopanib + Olaparib (first compound 0.03162 µM) it was 0.332; in the assay with Pazopanib + Olaparib (first compound 0.1 µM) it was 0.366; in the assay with Pazopanib + Olaparib (first compound 0.3162 µM) it was 0.299; with Pazopanib + Olaparib (first compound 1 µM), 0.34.
Consider HCC-78, for which the relative viability was determined as 0.521 with Ponatinib + Foretinib (first compound 0.002 µM); 0.578 in the assay with Ponatinib + Foretinib (first compound 0.006325 µM); 0.598 in the assay with Ponatinib + Foretinib (first compound 0.06325 µM); 0.534 in the assay with Ponatinib + Foretinib (first compound 0.2 µM); 0.203 with Ponatinib + Pictilisib (first compound 0.002 µM); 0.216 with Ponatinib + Pictilisib (first compound 0.006325 µM). Further, the relative viability with Ponatinib + Pictilisib (first compound 0.06325 µM) amounted to 0.214; with Ponatinib + Pictilisib (first compound 0.2 µM), 0.232; in the assay with Pazopanib + Tozasertib (first compound 0.01 µM) it was 0.334; with Pazopanib + Tozasertib (first compound 0.03162 µM), 0.429; with Pazopanib + Tozasertib (first compound 0.1 µM), 0.472; in the assay with Pazopanib + Tozasertib (first compound 0.3162 µM), 0.517. In addition, the relative viability in the assay with Pazopanib + Tozasertib (first compound 1 µM) stood at 0.415; with Pazopanib + Olaparib (first compound 0.03162 µM), 0.87; in the assay with Pazopanib + Olaparib (first compound 0.1 µM), 0.778; with Pazopanib + Olaparib (first compound 0.3162 µM), 0.906; in the assay with Pazopanib + Olaparib (first compound 1 µM) it was 0.995.
On to NCI-H1299, for which the relative viability with Ponatinib + Foretinib (first compound 0.002 µM) is 1.07; with Ponatinib + Foretinib (first compound 0.006325 µM), 1.09; with Ponatinib + Foretinib (first compound 0.06325 µM), 1.15; in the assay with Ponatinib + Foretinib (first compound 0.2 µM) it was 1.07; with Ponatinib + Pictilisib (first compound 0.002 µM) it was 0.894; with Ponatinib + Pictilisib (first compound 0.006325 µM), 0.874. In addition, the relative viability is 0.988 in the assay with Ponatinib + Pictilisib (first compound 0.06325 µM); 0.658 with Ponatinib + Pictilisib (first compound 0.2 µM); 1 in the assay with Pazopanib + Olaparib (first compound 0.01 µM); 0.961 in the assay with Pazopanib + Olaparib (first compound 0.03162 µM); 0.934 with Pazopanib + Olaparib (first compound 0.1 µM); 0.993 in the assay with Pazopanib + Olaparib (first compound 0.3162 µM). Besides, the relative viability in the assay with Pazopanib + Olaparib (first compound 1 µM) was 0.865.
On to NCI-H838, for which the relative viability was found to be 1.02 with Ponatinib + Foretinib (first compound 0.002 µM); 1.03 with Ponatinib + Foretinib (first compound 0.006325 µM); 1.05 with Ponatinib + Foretinib (first compound 0.06325 µM); 0.955 with Ponatinib + Foretinib (first compound 0.2 µM); 0.564 with Ponatinib + Pictilisib (first compound 0.002 µM); 0.505 with Ponatinib + Pictilisib (first compound 0.006325 µM). Moreover, the relative viability with Ponatinib + Pictilisib (first compound 0.06325 µM) is 0.455; in the assay with Ponatinib + Pictilisib (first compound 0.2 µM) it was 0.455; with Pazopanib + Tozasertib (first compound 0.01 µM), 0.278; with Pazopanib + Tozasertib (first compound 0.03162 µM), 0.247; with Pazopanib + Tozasertib (first compound 0.1 µM) it was 0.29; with Pazopanib + Tozasertib (first compound 0.3162 µM), 0.28. Further, the relative viability in the assay with Pazopanib + Tozasertib (first compound 1 µM) turned out to be 0.295; in the assay with Pazopanib + Olaparib (first compound 0.01 µM), 0.745; with Pazopanib + Olaparib (first compound 0.03162 µM), 0.843; with Pazopanib + Olaparib (first compound 0.1 µM) it was 0.776; in the assay with Pazopanib + Olaparib (first compound 0.3162 µM), 0.816; with Pazopanib + Olaparib (first compound 1 µM), 0.82.
As for SW 900, the relative viability in the assay with Ponatinib + Foretinib (first compound 0.002 µM) was found to be 0.893; with Ponatinib + Foretinib (first compound 0.006325 µM), 0.998; with Ponatinib + Foretinib (first compound 0.06325 µM), 1.12; with Ponatinib + Foretinib (first compound 0.2 µM) it was 0.593; with Pazopanib + Tozasertib (first compound 0.01 µM), 0.556; with Pazopanib + Tozasertib (first compound 0.03162 µM) it was 0.443. In addition, the relative viability with Pazopanib + Tozasertib (first compound 0.1 µM) was determined as 0.495; in the assay with Pazopanib + Tozasertib (first compound 0.3162 µM), 0.578; with Pazopanib + Tozasertib (first compound 1 µM), 0.53; with Pazopanib + Olaparib (first compound 0.01 µM), 0.942; with Pazopanib + Olaparib (first compound 0.03162 µM) it was 1.07; with Pazopanib + Olaparib (first compound 0.3162 µM), 0.915. Also, in the assay with Pazopanib + Olaparib (first compound 1 µM), the relative viability worked out at 0.945.

For the origin of these results see the supplement of paper PMC10307832.
